Measurements from patent publication US20150164946A1, “Thrush Treatment Paste” (priority 2013, published 2015).

Settings: copper sulfate concentration up to 70% (weight percent) in the composition, applied to horse hoofs

## O=S(=O)([O-])[O-].[Cu+2] [copper sulfate]
  harmfulness in this usage (topical hoof thrush treatment): not be harmful
